Test results from PMC12713023, “CDH1 Orchestrates Anabolic Events to Promote Cell Cycle Initiation” (Advanced Science, 2025).

Experiments:
CPT2 = molecular target: T1, CPT2 (Homo sapiens, UniProt P23786); assay: CoA consumption, DTNB at […] nm; assay type: biochemical; conditions: 2 mM CoA, 2 mM palmitoyl-L-carnitine, pH 7.5, 37 °C
T1 sequence (P23786 26-658): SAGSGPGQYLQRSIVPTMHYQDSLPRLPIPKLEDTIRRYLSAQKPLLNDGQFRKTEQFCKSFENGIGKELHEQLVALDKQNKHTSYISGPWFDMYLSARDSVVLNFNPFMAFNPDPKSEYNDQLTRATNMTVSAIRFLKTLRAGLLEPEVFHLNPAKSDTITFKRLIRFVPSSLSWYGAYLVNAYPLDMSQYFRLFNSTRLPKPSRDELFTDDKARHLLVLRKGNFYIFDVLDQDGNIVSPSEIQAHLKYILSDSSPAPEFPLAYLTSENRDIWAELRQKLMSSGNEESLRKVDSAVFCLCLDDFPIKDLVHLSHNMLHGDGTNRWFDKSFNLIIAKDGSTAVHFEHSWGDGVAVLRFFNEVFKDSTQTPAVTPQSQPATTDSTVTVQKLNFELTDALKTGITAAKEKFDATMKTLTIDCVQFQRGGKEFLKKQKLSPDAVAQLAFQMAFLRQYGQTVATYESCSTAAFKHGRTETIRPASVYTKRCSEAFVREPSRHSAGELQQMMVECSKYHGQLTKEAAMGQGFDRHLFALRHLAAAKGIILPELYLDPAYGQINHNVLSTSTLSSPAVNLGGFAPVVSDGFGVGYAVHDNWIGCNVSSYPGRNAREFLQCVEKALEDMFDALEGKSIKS

[1] = molecular target: T2, TKTL1 (transketolase-like-1) (Homo sapiens, UniProt P51854); assay: biolayer interferometry, His-tagged protein on anti-His biosensors, […] fit; assay type: binding; conditions: PBST, 30 °C, 0.82-200 µM ligand; KD = kd/ka
T2 construct: CDS in pET-22b(+), His-tagged, E. coli BL21(DE3), Ni-NTA; tag kept (captured on anti-His biosensors)
T2 sequence (P51854 1-596): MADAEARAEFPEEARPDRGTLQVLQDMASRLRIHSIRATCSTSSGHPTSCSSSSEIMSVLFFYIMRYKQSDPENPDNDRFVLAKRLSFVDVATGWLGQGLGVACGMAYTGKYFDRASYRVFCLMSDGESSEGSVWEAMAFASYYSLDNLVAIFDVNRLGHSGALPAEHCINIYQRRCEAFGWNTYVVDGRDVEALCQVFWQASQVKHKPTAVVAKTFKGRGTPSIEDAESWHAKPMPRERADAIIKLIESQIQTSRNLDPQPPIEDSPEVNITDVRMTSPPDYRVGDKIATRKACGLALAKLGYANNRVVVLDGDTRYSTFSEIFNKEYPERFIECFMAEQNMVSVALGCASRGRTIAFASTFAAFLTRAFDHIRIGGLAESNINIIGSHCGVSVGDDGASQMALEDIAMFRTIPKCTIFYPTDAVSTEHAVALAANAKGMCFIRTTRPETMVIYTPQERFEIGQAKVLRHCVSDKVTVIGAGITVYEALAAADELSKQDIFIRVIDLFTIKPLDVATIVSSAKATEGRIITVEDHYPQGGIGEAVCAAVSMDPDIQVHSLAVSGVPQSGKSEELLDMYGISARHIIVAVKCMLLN

Kd [1] [µM]	Structure (SMILES)	relative specific activity (CPT2)
–	CC(C)(COP(=O)(O)OP(=O)(O)OC[C@H]1O[C@@H](n2cnc3c(N)ncnc32)[C@H](O)[C@@H]1OP(=O)(O)O)[C@@H](O)C(=O)NCCC(=O)NCCS [CoA]	CPT2 activity was assayed by measuring the decrease in CoA levels
8.58	O=S(=O)(O)OC[C@H]1OC(O)[C@H](O)[C@@H]1O (some centres unmarked) [R5S]	–
